Measured values from PubChem BioAssay (NCI).
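In this assay, cells in 96-well plates receive the compound at five concentrations for 48 hours. Endpoints are linearly interpolated between the surrounding concentrations. GI50 is the concentration that inhibits growth by half. TGI denotes the concentration required for complete inhibition of growth.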

Tests used:
Experiment in all cases: growth of human tumour cells (NCI), 48 h
UACC-62 melanoma = tested on: UACC-62 melanoma
EKVX NSCLC = tested on: EKVX NSCLC
NCI-H226 lung = tested on: NCI-H226 lung
NCI/ADR-RES ovarian = tested on: NCI/ADR-RES ovarian
786-0 renal = tested on: 786-0 renal
PC-3 prostate = tested on: PC-3 prostate
SF-268 CNS = tested on: SF-268 CNS
ACHN renal = tested on: ACHN renal
CAKI-1 renal = tested on: CAKI-1 renal
HT29 colon = tested on: HT29 colon
HS 578T breast = tested on: HS 578T breast
A498 renal = tested on: A498 renal
SK-MEL-2 melanoma = tested on: SK-MEL-2 melanoma
LOX IMVI melanoma = tested on: LOX IMVI melanoma
HL-60(TB) leukemia = tested on: HL-60(TB) leukemia
MCF7 breast = tested on: MCF7 breast
MOLT-4 leukemia = tested on: MOLT-4 leukemia
OVCAR-3 ovarian = tested on: OVCAR-3 ovarian
SN12C renal = tested on: SN12C renal
SR leukemia = tested on: SR leukemia
NCI-H23 lung = tested on: NCI-H23 lung
OVCAR-5 ovarian = tested on: OVCAR-5 ovarian
NCI-H522 lung = tested on: NCI-H522 lung
K-562 leukemia = tested on: K-562 leukemia
HCT-116 colon = tested on: HCT-116 colon
NCI-H460 lung = tested on: NCI-H460 lung
HOP-92 NSCLC = tested on: HOP-92 NSCLC
M14 melanoma = tested on: M14 melanoma
BT-549 breast = tested on: BT-549 breast
MALME-3M melanoma = tested on: MALME-3M melanoma
T-47D breast = tested on: T-47D breast
A549 NSCLC = tested on: A549 NSCLC
MDA-MB-435 = tested on: MDA-MB-435
SNB-19 CNS = tested on: SNB-19 CNS
KM12 colon = tested on: KM12 colon
UACC-257 melanoma = tested on: UACC-257 melanoma
SK-MEL-5 melanoma = tested on: SK-MEL-5 melanoma
SF-295 CNS = tested on: SF-295 CNS
DU-145 prostate = tested on: DU-145 prostate
OVCAR-4 ovarian = tested on: OVCAR-4 ovarian
RXF 393 renal = tested on: RXF 393 renal
SK-MEL-28 melanoma = tested on: SK-MEL-28 melanoma
SNB-75 CNS = tested on: SNB-75 CNS
MDA-MB-231 breast = tested on: MDA-MB-231 breast
U251 CNS = tested on: U251 CNS
SF-539 CNS = tested on: SF-539 CNS
HCT-15 colon = tested on: HCT-15 colon
COLO 205 colon = tested on: COLO 205 colon
UO-31 renal = tested on: UO-31 renal
SW-620 colon = tested on: SW-620 colon
CCRF-CEM leukemia = tested on: CCRF-CEM leukemia
HOP-62 NSCLC = tested on: HOP-62 NSCLC
SK-OV-3 ovarian = tested on: SK-OV-3 ovarian
OVCAR-8 ovarian = tested on: OVCAR-8 ovarian
TK-10 renal = tested on: TK-10 renal
HCC-2998 colon = tested on: HCC-2998 colon
IGROV1 ovarian = tested on: IGROV1 ovarian
RPMI-8226 leukemia = tested on: RPMI-8226 leukemia

COc1ccccc1N1C(=O)CSC1c1cccc(Oc2ccccc2)c1 (centres undefined)
TGI (UACC-62 melanoma): 30.1 µM | TGI (EKVX NSCLC): 43.4 µM | TGI (NCI-H226 lung): 36.9 µM | TGI (NCI/ADR-RES ovarian): 46.2 µM | TGI (786-0 renal): 32.5 µM | TGI (PC-3 prostate): 40 µM | TGI (SF-268 CNS): 36.3 µM | TGI (ACHN renal): 38.2 µM | TGI (CAKI-1 renal): 74.5 µM | TGI (HT29 colon): 46.7 µM | TGI (HS 578T breast): 44.5 µM | TGI (A498 renal): 36.6 µM | TGI (SK-MEL-2 melanoma): 29.9 µM | TGI (LOX IMVI melanoma): 32.4 µM | TGI (HL-60(TB) leukemia): 72.6 µM | TGI (MCF7 breast): 37.1 µM | TGI (MOLT-4 leukemia): 64.8 µM | TGI (OVCAR-3 ovarian): 45.1 µM | TGI (SN12C renal): 31.9 µM | TGI (SR leukemia): 70.5 µM | TGI (NCI-H23 lung): 52.9 µM | TGI (OVCAR-5 ovarian): 50.4 µM | TGI (NCI-H522 lung): 34.7 µM | TGI (K-562 leukemia): 70.2 µM | TGI (HCT-116 colon): 31.5 µM | TGI (NCI-H460 lung): 33.3 µM | TGI (HOP-92 NSCLC): 26.5 µM | TGI (M14 melanoma): 33.5 µM | TGI (BT-549 breast): 31.9 µM | TGI (MALME-3M melanoma): 30.6 µM | TGI (T-47D breast): 58.1 µM | TGI (A549 NSCLC): 47.4 µM | TGI (MDA-MB-435): 32 µM | TGI (SNB-19 CNS): 56.1 µM | TGI (KM12 colon): 75.6 µM | TGI (UACC-257 melanoma): 33.6 µM | TGI (SK-MEL-5 melanoma): 29.9 µM | TGI (SF-295 CNS): 41.1 µM | TGI (DU-145 prostate): 38.7 µM | TGI (OVCAR-4 ovarian): 39.6 µM | TGI (RXF 393 renal): 33.6 µM | TGI (SK-MEL-28 melanoma): 34.6 µM | TGI (SNB-75 CNS): 41.7 µM | TGI (MDA-MB-231 breast): 32.4 µM | TGI (U251 CNS): 30.7 µM | TGI (SF-539 CNS): 31.6 µM | TGI (HCT-15 colon): 37.4 µM | TGI (COLO 205 colon): 34.9 µM | TGI (UO-31 renal): 32.9 µM | TGI (SW-620 colon): 56.6 µM | TGI (CCRF-CEM leukemia): > 100 µM | TGI (HOP-62 NSCLC): 45.7 µM | TGI (SK-OV-3 ovarian): > 100 µM | TGI (OVCAR-8 ovarian): 37.5 µM | TGI (TK-10 renal): 48.4 µM

C[C@]12CC[C@@H]3c4ccc(O)cc4CC[C@H]3[C@@H]1CC(Cc1ccccc1)(Cc1ccccc1)C2=O
GI50 (UACC-62 melanoma): 15.1 µM | TGI (UACC-62 melanoma): 29.3 µM | GI50 (EKVX NSCLC): 10.9 µM | TGI (EKVX NSCLC): 24.7 µM | GI50 (NCI-H226 lung): 16 µM | TGI (NCI-H226 lung): 31.3 µM | GI50 (NCI/ADR-RES ovarian): 16.5 µM | TGI (NCI/ADR-RES ovarian): 30.7 µM | GI50 (786-0 renal): 13.6 µM | TGI (786-0 renal): 26.7 µM | GI50 (PC-3 prostate): 4.11 µM | TGI (PC-3 prostate): 15.5 µM | GI50 (SF-268 CNS): 21.2 µM | TGI (SF-268 CNS): 58.3 µM | GI50 (ACHN renal): 14.5 µM | TGI (ACHN renal): 27.9 µM | GI50 (CAKI-1 renal): 25.6 µM | TGI (CAKI-1 renal): 45.3 µM | GI50 (HT29 colon): 6.04 µM | TGI (HT29 colon): 20.6 µM | GI50 (HS 578T breast): 30.9 µM | TGI (HS 578T breast): > 100 µM | GI50 (A498 renal): 21.3 µM | TGI (A498 renal): 36.5 µM | GI50 (SK-MEL-2 melanoma): 24.8 µM | TGI (SK-MEL-2 melanoma): 53.6 µM | GI50 (LOX IMVI melanoma): 12.7 µM | TGI (LOX IMVI melanoma): 27.2 µM | GI50 (HCC-2998 colon): 4.04 µM | TGI (HCC-2998 colon): 14.2 µM | GI50 (HL-60(TB) leukemia): 4.75 µM | TGI (HL-60(TB) leukemia): 20.9 µM | GI50 (MCF7 breast): 15.6 µM | TGI (MCF7 breast): 46.8 µM | GI50 (MOLT-4 leukemia): 9.11 µM | TGI (MOLT-4 leukemia): 32.8 µM | GI50 (OVCAR-3 ovarian): 16 µM | TGI (OVCAR-3 ovarian): 38.3 µM | GI50 (SN12C renal): 14.8 µM | TGI (SN12C renal): 29.2 µM | GI50 (SR leukemia): 4.87 µM | TGI (SR leukemia): 36.1 µM | GI50 (NCI-H23 lung): 14.3 µM | TGI (NCI-H23 lung): 28.2 µM | GI50 (OVCAR-5 ovarian): 17.2 µM | TGI (OVCAR-5 ovarian): 31.5 µM | GI50 (NCI-H522 lung): 16.6 µM | TGI (NCI-H522 lung): 36.3 µM | GI50 (K-562 leukemia): 16.2 µM | TGI (K-562 leukemia): > 100 µM | GI50 (HCT-116 colon): 8.59 µM | TGI (HCT-116 colon): 20.7 µM | GI50 (NCI-H460 lung): 12.1 µM | TGI (NCI-H460 lung): 38.1 µM | GI50 (HOP-92 NSCLC): 2.16 µM | TGI (HOP-92 NSCLC): 9.77 µM | GI50 (M14 melanoma): 13.1 µM | TGI (M14 melanoma): 26.2 µM | GI50 (BT-549 breast): 18.8 µM | TGI (BT-549 breast): 38.7 µM | GI50 (MALME-3M melanoma): 23.5 µM | TGI (MALME-3M melanoma): 48.9 µM | GI50 (T-47D breast): 11 µM | TGI (T-47D breast): 34.6 µM | GI50 (A549 NSCLC): 18.5 µM | TGI (A549 NSCLC): 48.4 µM | GI50 (MDA-MB-435): 20.7 µM | TGI (MDA-MB-435): 57 µM | GI50 (SNB-19 CNS): 18 µM | TGI (SNB-19 CNS): 34.5 µM | GI50 (KM12 colon): 11.5 µM | TGI (KM12 colon): 38 µM | GI50 (UACC-257 melanoma): 18.4 µM | TGI (UACC-257 melanoma): 39.5 µM | GI50 (SK-MEL-5 melanoma): 17.9 µM | TGI (SK-MEL-5 melanoma): 31.8 µM | GI50 (SF-295 CNS): 21.4 µM | TGI (SF-295 CNS): 49.1 µM | GI50 (DU-145 prostate): 15.1 µM | TGI (DU-145 prostate): 30.5 µM | GI50 (OVCAR-4 ovarian): 12.7 µM | TGI (OVCAR-4 ovarian): 27.3 µM | GI50 (IGROV1 ovarian): 20.3 µM | TGI (IGROV1 ovarian): 41.5 µM | GI50 (RPMI-8226 leukemia): 5.57 µM | TGI (RPMI-8226 leukemia): 23.5 µM | GI50 (SK-MEL-28 melanoma): 19.8 µM | TGI (SK-MEL-28 melanoma): 36.9 µM | GI50 (SNB-75 CNS): 16.7 µM | TGI (SNB-75 CNS): 34.5 µM | GI50 (MDA-MB-231 breast): 14.1 µM | TGI (MDA-MB-231 breast): 28.5 µM | GI50 (U251 CNS): 16 µM | TGI (U251 CNS): 31.8 µM | GI50 (SF-539 CNS): 18.6 µM | TGI (SF-539 CNS): 36.8 µM | GI50 (HCT-15 colon): 13.9 µM | TGI (HCT-15 colon): 28.7 µM | GI50 (COLO 205 colon): 13.4 µM | TGI (COLO 205 colon): 31.9 µM | GI50 (UO-31 renal): 15.8 µM | TGI (UO-31 renal): 31.3 µM | GI50 (SW-620 colon): 14.2 µM | TGI (SW-620 colon): 30 µM | GI50 (CCRF-CEM leukemia): 14.3 µM | TGI (CCRF-CEM leukemia): 36.4 µM | GI50 (HOP-62 NSCLC): 17.7 µM | TGI (HOP-62 NSCLC): 32.9 µM | GI50 (SK-OV-3 ovarian): 21.2 µM | TGI (SK-OV-3 ovarian): 37.4 µM | GI50 (OVCAR-8 ovarian): 21.5 µM | TGI (OVCAR-8 ovarian): 61.3 µM | GI50 (TK-10 renal): 19.9 µM | TGI (TK-10 renal): 43 µM
